Measurements from patent publication US20240116912A1, “COMPOUNDS AND METHODS FOR MODULATING FXR” (Terns Pharmaceuticals, Inc., priority 2020, published 2024).
pEC50: −log10 of the molar value.

What was measured:
[1] = target: full length human FXR protein (Homo sapiens (Human), UniProt Q96RI1); assay: FXR cellular assay (FXR-SRCP β-gal enzyme fragment complementation in CHO-K1 cells, chemiluminescence); type: cell-based; conditions: CHO-K1 cells with SRCP-EA and ProLink-labeled FXR, 0-10 micromolar compound, 37° C. for 6h, read-out: EC50 FXR-cell Luminescence/
How it was run: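 CHO-K1 cells stably expressing ProLink-tagged full-length FXR and SRCP-EA treated with compound (0-10 micromolar, 1% DMSO) for 6 h at 37 °C. Ligand-driven FXR-coactivator binding reconstitutes β-gal; chemiluminescence read after 1 h detection reagent at room temperature.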

[2] = target: ligand binding domain (LBD) of recombinant human FXR (Homo sapiens (Human), UniProt Q96RI1); assay: FXR cell free coactivator (SRC-1) recruitment assay, TR-FRET; conditions: FXR LBD (amino acids 244-476) with labeled SRC-1 domain, 25° C. for 60 minutes, activity relative to CDCA maximum; read-out: EC50 FXR- Biochemical TR-FRET/μM
How it was run: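 Purified SF9-expressed FXR LBD (aa 244-476) was incubated with compounds (0-10 micromolar) and labeled SRC-1 interaction domain in TR-FRET coregulator buffer G, 60 min at 25° C, 1.2% DMSO. Activity at each concentration was taken as percent of maximal CDCA response to build dose-response curves.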

Chain of ligand binding domain (LBD) of recombinant human FXR (Q96RI1 254-486): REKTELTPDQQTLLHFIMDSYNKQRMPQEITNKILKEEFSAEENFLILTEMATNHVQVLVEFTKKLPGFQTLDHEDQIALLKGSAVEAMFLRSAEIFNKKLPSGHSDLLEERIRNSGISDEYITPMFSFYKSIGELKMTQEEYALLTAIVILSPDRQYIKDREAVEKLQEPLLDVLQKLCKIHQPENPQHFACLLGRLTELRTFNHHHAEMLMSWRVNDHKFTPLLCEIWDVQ
Chain of ligand binding domain (LBD) of recombinant human FXR (Q15788 whole entry partner, the tested form may be a part): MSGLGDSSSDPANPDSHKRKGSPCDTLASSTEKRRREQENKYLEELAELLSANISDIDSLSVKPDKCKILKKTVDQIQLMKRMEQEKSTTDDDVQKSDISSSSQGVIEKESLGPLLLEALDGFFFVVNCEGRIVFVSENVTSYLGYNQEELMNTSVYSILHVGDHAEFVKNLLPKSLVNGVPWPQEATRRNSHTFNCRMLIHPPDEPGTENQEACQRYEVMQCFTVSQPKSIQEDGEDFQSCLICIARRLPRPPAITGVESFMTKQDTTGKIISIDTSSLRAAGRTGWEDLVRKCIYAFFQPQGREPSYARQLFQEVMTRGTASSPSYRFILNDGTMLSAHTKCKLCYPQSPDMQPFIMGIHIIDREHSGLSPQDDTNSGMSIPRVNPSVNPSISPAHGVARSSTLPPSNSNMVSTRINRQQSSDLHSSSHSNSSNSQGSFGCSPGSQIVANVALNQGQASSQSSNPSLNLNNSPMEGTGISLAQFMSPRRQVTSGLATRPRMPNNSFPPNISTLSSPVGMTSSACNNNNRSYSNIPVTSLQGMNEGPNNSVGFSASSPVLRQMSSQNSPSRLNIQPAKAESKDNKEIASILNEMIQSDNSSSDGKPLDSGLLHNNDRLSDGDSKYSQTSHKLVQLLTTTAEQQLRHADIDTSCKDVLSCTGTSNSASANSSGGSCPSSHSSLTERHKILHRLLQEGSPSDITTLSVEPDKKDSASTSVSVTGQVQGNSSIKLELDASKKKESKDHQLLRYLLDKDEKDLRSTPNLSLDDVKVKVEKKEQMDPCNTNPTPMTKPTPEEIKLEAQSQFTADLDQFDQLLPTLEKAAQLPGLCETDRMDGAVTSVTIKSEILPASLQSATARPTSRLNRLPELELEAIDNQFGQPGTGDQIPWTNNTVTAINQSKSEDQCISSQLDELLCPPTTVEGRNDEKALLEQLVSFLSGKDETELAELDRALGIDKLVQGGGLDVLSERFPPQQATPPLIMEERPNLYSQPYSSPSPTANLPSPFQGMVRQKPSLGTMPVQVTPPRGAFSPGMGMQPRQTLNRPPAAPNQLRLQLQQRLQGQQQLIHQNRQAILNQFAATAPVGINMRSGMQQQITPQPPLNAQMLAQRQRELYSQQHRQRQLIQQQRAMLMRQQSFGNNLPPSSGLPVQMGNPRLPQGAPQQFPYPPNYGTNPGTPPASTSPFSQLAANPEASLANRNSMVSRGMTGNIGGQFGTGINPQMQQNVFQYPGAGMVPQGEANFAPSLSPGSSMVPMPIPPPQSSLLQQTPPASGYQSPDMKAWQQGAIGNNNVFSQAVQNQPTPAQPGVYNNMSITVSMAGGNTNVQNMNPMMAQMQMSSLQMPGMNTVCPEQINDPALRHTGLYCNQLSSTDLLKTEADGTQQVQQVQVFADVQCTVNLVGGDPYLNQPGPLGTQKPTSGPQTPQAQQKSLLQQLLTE
Chain of full length human FXR protein (Q96RI1 whole entry, the tested form may be a part): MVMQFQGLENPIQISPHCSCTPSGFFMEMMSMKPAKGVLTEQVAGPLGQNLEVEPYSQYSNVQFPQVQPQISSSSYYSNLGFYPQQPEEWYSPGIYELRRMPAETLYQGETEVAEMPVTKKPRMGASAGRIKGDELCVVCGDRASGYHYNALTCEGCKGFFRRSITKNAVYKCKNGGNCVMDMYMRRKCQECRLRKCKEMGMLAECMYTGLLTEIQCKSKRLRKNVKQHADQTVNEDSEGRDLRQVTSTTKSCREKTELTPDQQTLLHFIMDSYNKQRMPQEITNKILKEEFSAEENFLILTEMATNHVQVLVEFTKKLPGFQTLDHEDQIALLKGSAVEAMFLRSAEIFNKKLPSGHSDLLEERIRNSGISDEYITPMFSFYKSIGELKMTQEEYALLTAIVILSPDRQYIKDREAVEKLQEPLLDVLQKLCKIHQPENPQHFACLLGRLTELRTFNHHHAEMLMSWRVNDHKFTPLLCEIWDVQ

| pEC50 [1] | EC50 [2] [µM] | Structure (SMILES) |
| --- | --- | --- |
| 6.36 | 0.0737 | O=c1[nH]nc(-c2ccc(N3CCC(OCc4c(-c5c(Cl)cccc5Cl)noc4C4CC4)CC3)cc2)o1 [Example 12, 5-(4-(4-((5-cyclopropyl-3-(2,6-dichlorophenyl)isoxazol-4-yl)methoxy)piperidin-1-yl)phenyl)-1,3,4-oxadiazol-2(3H)-one] |
| 6.71 | 0.0126 | C[C@H]1CN(c2ccc(-c3noc(=O)[nH]3)cc2)CC[C@H]1OCc1c(-c2c(Cl)cccc2Cl)noc1C1CC1 [Example 32, 3-(4-((3S,4R)-4-((5-cyclopropyl-3-(2,6-dichlorophenyl)isoxazol-4-yl)methoxy)-3-methylpiperidin-1-yl)phenyl)-1,2,4-oxadiazol-5(4H)-one] |
| 6.58 | 0.0179 | O=c1cc(-c2ccc(N3CCC(OCc4c(-c5c(Cl)cccc5Cl)noc4C4CC4)CC3)nc2)o[nH]1 [Example 59, 5-(6-(4-((5-cyclopropyl-3-(2,6-dichlorophenyl)isoxazol-4-yl)methoxy)piperidin-1-yl)pyridin-3-yl)isoxazol-3(2H)-one] |
| 5.72 | 0.298 | O=c1[nH]nc(-c2ccc(N3CCC(OCc4c(-c5ccccc5OC(F)(F)F)noc4C4CC4)CC3)nc2)o1 [Example 61, 5-(6-(4-((5-cyclopropyl-3-(2-(trifluoromethoxy)phenyl)isoxazol-4-yl)methoxy)piperidin-1-yl)pyridin-3-yl)-1,3,4-oxadiazol-2(3H)-one] |
| 6.38 | 0.0633 | C[C@H]1C[C@@H](OCc2c(-c3c(Cl)cccc3Cl)noc2C2CC2)CCN1c1ccc(-c2noc(=O)[nH]2)cc1 [Example 22, 3-(4-((2S,4S)-4-((5-cyclopropyl-3-(2,6-dichlorophenyl)isoxazol-4-yl)methoxy)-2-methylpiperidin-1-yl)phenyl)-1,2,4-oxadiazol-5(4H)-one] |
| 5.00 | 0.0746 | O=c1[nH]nc(-c2ccc(N3CCC(OCc4c(-c5c(Cl)cccc5Cl)noc4C4CC4)CC3)cn2)c(=O)[nH]1 [Example 46, 6-(5-(4-((5-cyclopropyl-3-(2,6-dichlorophenyl)isoxazol-4-yl)methoxy)piperidin-1-yl)pyridin-2-yl)-1,2,4-triazine-3,5(2H,4H)-dione] |
| 6.81 | 0.0161 | O=c1[nH]c(-c2ccc(N3CCC(OCc4c(-c5c(Cl)cccc5Cl)noc4C4CC4)CC3)c(F)c2)no1 [Example 39, 3-(4-(4-((5-cyclopropyl-3-(2,6-dichlorophenyl)isoxazol-4-yl)methoxy)piperidin-1-yl)-3-fluorophenyl)-1,2,4-oxadiazol-5(4H)-one] |
| 5.91 | 0.105 | O=c1[nH]c(-c2cccc(N3CCC(OCc4c(-c5c(Cl)cccc5Cl)noc4C4CC4)CC3)c2)no1 [Example 7, 3-(3-(4-((5-cyclopropyl-3-(2,6-dichlorophenyl)isoxazol-4-yl)methoxy)piperidin-1-yl)phenyl)-1,2,4-oxadiazol-5(4H)-one] |
| 5.84 | 0.107 | O=c1[nH]c(-c2ccc(N3CCC(OCc4c(-c5c(F)cccc5F)noc4C4CC4)CC3)nc2)no1 [Example 74, 3-(6-(4-((5-cyclopropyl-3-(2,6-difluorophenyl)isoxazol-4-yl)methoxy)piperidin-1-yl)pyridin-3-yl)-1,2,4-oxadiazol-5(4H)-one] |
| 7.74 | 0.0029 | O=c1[nH]c(-c2ccc(N3CCCC(OCc4c(-c5c(Cl)cccc5Cl)noc4C4CC4)CC3)cc2)no1 (stereo not shown) [Example 18, 3-(4-(4-((5-cyclopropyl-3-(2,6-dichlorophenyl)isoxazol-4-yl)methoxy)azepan-1-yl)phenyl)-1,2,4-oxadiazol-5(4H)-one] |
| 5.79 | 0.143 | O=c1cc(-c2ccc(N3CCC(OCc4c(-c5ccccc5OC(F)(F)F)noc4C4CC4)CC3)cc2)o[nH]1 [Example 52, 5-(4-(4-((5-cyclopropyl-3-(2-(trifluoromethoxy)phenyl)isoxazol-4-yl)methoxy)piperidin-1-yl)phenyl)isoxazol-3(2H)-one] |
